Target: T1, recombinant SIRT5 (His-tagged, Millipore) (Homo sapiens, UniProt Q9NXA8)
T1 sequence (Q9NXA8 37-310): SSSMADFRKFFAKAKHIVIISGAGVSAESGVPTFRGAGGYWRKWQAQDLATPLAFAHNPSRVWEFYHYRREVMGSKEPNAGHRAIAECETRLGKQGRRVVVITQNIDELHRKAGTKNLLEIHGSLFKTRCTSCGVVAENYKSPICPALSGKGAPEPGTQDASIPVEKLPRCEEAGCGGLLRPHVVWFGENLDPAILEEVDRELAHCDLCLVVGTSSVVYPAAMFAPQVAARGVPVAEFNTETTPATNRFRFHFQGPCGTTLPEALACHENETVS
Assay: Mass spectrometry determination of covalent labeling
Format: binding
Details: Tris buffer pH 8, 24 h room temperature (7, 8: 37 °C, 48 h)

Row | SMILES | covalent conjugate formation with SIRT5 (MALDI-TOF MS)
1 | O=C(NC1CCC1)[C@H](Cc1c[nH]c2ccccc12)NC(=O)[C@H](CCCCNC(=S)Nc1cccc(OS(=O)(=O)F)c1)NS(=O)(=O)c1cccc(F)c1 [compound 7] | not significantly enhanced compared to the amide analogs
2 | O=C(NCCCC[C@H](NS(=O)(=O)c1cccc(F)c1)C(=O)N[C@@H](Cc1c[nH]c2ccccc12)C(=O)NC1CCC1)c1cccc(S(=O)(=O)F)c1 [compound 2] | reacted more readily with SIRT5
3 | O=C(NC1CCC1)[C@H](Cc1c[nH]c2ccccc12)NC(=O)[C@H](CCCCNC(=S)Nc1ccc(OS(=O)(=O)F)cc1)NS(=O)(=O)c1cccc(F)c1 [compound 8] | not significantly enhanced compared to the amide analogs
